Laboratory results from patent publication US6586206B1, “Methods for making recombinant proteins using apoptosis inhibitors” (priority 1999, dated 2003).
Residues, ends and D or L forms follow the SMILES beside them. *: point of attachment. Cbz = O=C(OCc1ccccc1)*; CH2F = FC*

Columns and labels:
caspase-3 = caspase-3 activity in CHO culture treated with z-VAD-fmk; format: cell-based, Chinese hamster; settings: z-VAD-fmk added to the culture at 100 uM, from 48 hours, every 24 hours
Protocol: (§1) FIGS. 9-10 show assay results of CHO cells seeded in 60 mm dishes and exposed to caspase inhibitor, z-VAD-fmk (added to the cell culture at 100 micromolar concentration, 48 hours after seeding). The z-VAD-fmk inhibitor was added to the culture every 24 hours thereafter. Samples were taken every day and analyzed for caspase-3 activity (FIG. 9) and the % viable cells (FIG. 10).
(§2) CHO (dhfr+) cells grown in suspension were seeded at 1 million cells/ml in 60 mm tissue culture dishes. The cell culture media was a serum-free DMEM/Ham F-12 based medium containing recombinant human insulin and trace elements. Viability of the culture on day 0 was 96%. Two plates were analyzed each day for viability by Trypan Blue exclusion and by annexin/PI binding (Clontech) and for viable cell density. The experiment was carried out for 10 days. A chemical inhibitor of caspases, z-VAD-fmk (Enzyme Systems Products) was dissolved in DMSO to make a 100 mM (1000×) stock and 4 ul was added to a 60 mm dish containing 4 ml of culture. The inhibitor was added 48 hours after the start of the experiment (prior to the onset of apoptosis) and a new aliquot of the z-VAD-fmk inhibitor was added every 24 hours. Controls were cultures without any addition and cultures with the addition of DMSO only.

CHO (dhfr+) cells [1] = test: viability/apoptosis of CHO culture in 60 mm dishes with z-VAD-fmk (Trypan Blue exclusion, annexin/PI); format: cell-based, Chinese hamster
Protocol: as §1, §2

[2] = system: serum-free culture of CHO cells; settings: Goswami et al. 1999; cited from earlier work
NSO myeloma cells = settings: overexpression in NSO myeloma cells; Murray et al. 1996; cited from earlier work
different cell lines = settings: under cell-culture conditions; other investigators; cited from earlier work
CHO (dhfr+) cells [3] = test: effect of p35 expression on viability in 2 liter bioreactors; format: cell-based, Chinese hamster; settings: p35 expressed in CHO cells vs cpc vector control, 2 liter bioreactor

Question: Which caspase-3 activity (caspase-3) does the source give for COC(=O)C[C@H](NC(=O)[C@H](C)NC(=O)[C@@H](NC(=O)OCc1ccccc1)C(C)C)C(=O)CF [z-VAD-fmk] (Cbz-Val-Ala-Asp(OMe)-CH2F) here?
Answer: The caspase-3 activity was “inhibition of caspase-3 activity”.

Question: And the “apoptosis in cell cultures” value (CHO (dhfr+) cells [1]; added at a concentration of about 100 micromolar)?
Answer: Its value is “can inhibit apoptosis”.

Question: What about the cell viability (CHO (dhfr+) cells [1]; z-VAD-fmk added to the culture at 100 uM, from 48 hours, every 24 hours) of the same molecule?
Answer: The cell viability was “prolongation of cell viability”.

Question: And the “life of the culture” value [2]?
Answer: The value was “unable to substantially extend the life”.

Question: Which “decline phase characteristics of the cultured cells” value (NSO myeloma cells) does the source give for “bcl-2: anti-apoptotic gene overexpressed in cultured cells” here?
Answer: The value was “failed to affect the decline phase characteristics”.

Question: And the “prevention of cell death” value (different cell lines)?
Answer: The value was “can be effective in preventing different cell lines from death”.

B1: baculovirus p35: apoptosis inhibitor, baculovirus p35, expressed in CHO cells from p35/CPC construct (protein, UniProt P08160 1-299, looked up)
Early 35 kDa protein: MCVIFPVEIDVSQTIIRDCQVDKQTRELVYINKIMNTQLTKPVLMMFNISGPIRSVTRKNNNLRDRIKSKVDEQFDQLERDYSDQMDGFHDSIKYFKDEHYSVSCQNGSVLKSKFAKILKSHDYTDKKSIEAYEKYCLPKLVDERNDYYVAVCVLKPGFENGSNQVLSFEYNPIGNKVIVPFAHEINDTGLYEYDVVAYVDSVQFDGEQFEEFVQSLILPSSFKNSEKVLYYNEASKNKSMIYKALEFTTESSWGKSEKYNWKIFCNGFIYDKKSKVLYVKLHNVTSALNKNVILNTIK
Question: Which “viability in the bioreactor” value (CHO (dhfr+) cells [3]) does the source give for B1 here?
Answer: Its value is “prolongation of viability”.
